Assay results from patent publication US11999732B2, “P2X3 receptor antagonists” (RECORDATI INDUSTRIA CHIMICA E FARMACEUTICA SPA, priority 2018, dated 2024).
pIC50: −log10 of the molar value. Like-named read-outs stand apart in the source and are kept apart here.

Target: T1, human P2X3 receptor (Homo sapiens, UniProt P56373)
T1 construct: expressed in transfected cells; host or cells: CHO-K1
T1 sequence (P56373 1-397): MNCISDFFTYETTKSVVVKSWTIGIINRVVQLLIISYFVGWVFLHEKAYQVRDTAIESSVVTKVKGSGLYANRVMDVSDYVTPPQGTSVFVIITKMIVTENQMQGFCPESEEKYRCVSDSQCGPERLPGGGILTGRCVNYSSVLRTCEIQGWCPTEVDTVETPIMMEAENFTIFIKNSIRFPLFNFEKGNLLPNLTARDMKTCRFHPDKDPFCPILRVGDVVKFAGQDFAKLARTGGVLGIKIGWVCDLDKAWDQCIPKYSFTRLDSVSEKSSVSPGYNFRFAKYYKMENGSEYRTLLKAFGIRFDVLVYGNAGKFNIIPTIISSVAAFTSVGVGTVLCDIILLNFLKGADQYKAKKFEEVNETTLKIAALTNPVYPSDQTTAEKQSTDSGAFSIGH
Experiment: Calcium luminescence (photoprotein) assay in CHO-K1 cells co-expressing human P2X3 receptor, α,β-Met-ATP stimulation, FLEXSTATION readout
Format: cell-based
Settings: human P2X3 receptor antagonist activity, CHO-K1 cells, α,β-Met-ATP, read-out: h-P2X3 IC50
Procedure, shortened: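 CHO-K1 cells co-expressing human P2X3 and a Ca2+-sensitive photoprotein, loaded with coelenterazine in Tyrode's buffer (pH 7.4) for 4 h at 37 °C. Compounds injected 4 min before α,β-Met-ATP stimulation; luminescence recorded, IC50 and pseudo-Hill slope from nonlinear regression of inhibition curves.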

Compound | pIC50 (Table 6) | further results
CC(C)Cc1nnc2c3ncc(N4CCOCC4)cc3c(Cc3ccc(Cl)cc3)nn12 [Example 133, 6-(4-chlorobenzyl)-3-(2-methylpropyl)-8-(morpholin-4-yl)pyrido[2,3-d][1,2,4]triazolo[4,3-b]pyridazine] |  | pIC50 (Table 8): 6.66
CCN(CC)c1cnc2c(c1)N(Cc1ccc(OC)cc1)C(=O)N1C2=NC(=O)C1C(C)(C)C (stereo not drawn) [Example 165, 3-tert-butyl-8-(diethylamino)-6-(4-methoxybenzyl)imidazo[1,2-c]pyrido[2,3-e]pyrimidine-2,5(3H,6H)-dione] |  | pIC50 (Table 9): 6.15
COc1ccc(Cn2c(=O)n3cc(CC(C)C)nc3c3ncc(N4CCOCC4)cc32)cc1 [Example 78, 6-(4-methoxybenzyl)-2-(2-methylpropyl)-8-(morpholin-4-yl)imidazo[1,2-c]pyrido[2,3-e]pyrimidin-5(6H)-one] |  | pIC50 (Table 7): 6.20
COc1cc(Cn2c(=O)n3c(C)c(C(C)C)nc3c3ncc(N4CCC(OC)CC4)cc32)cc(OC)c1 [Example 87, 6-(3,5-dimethoxybenzyl)-8-(4-methoxypiperidin-1-yl)-3-methyl-2-(propan-2-yl)imidazo[1,2-c]pyrido[2,3-e]pyrimidin-5(6H)-one] |  | pIC50 (Table 7): 6.35
Cc1c(C(C)C)nc2c3ncc(N4CCOCC4)cc3n(Cc3ccc(Cl)cc3)c(=O)n12 [Example 90] |  | pIC50 (Table 7): 6.48
O=C1N2CC3(CCOCC3)N=C2c2ncc(N3CCOCC3)cc2N1Cc1ccc(Cl)cc1 [Example 40, 6-(4-chlorobenzyl)-8-(morpholin-4-yl)-2′,3′,5′,6′-tetrahydrospiro[imidazo[1,2-c]pyrido[2,3-e]pyrimidine-2,4′-pyran]-5(6H)-one] | 5.98 | 

More lines, main results first:

pIC50 (Table 6) | Compound | further results
5.65 | COC1CCN(c2cnc3c(c2)N(Cc2ccc(Cl)cc2)C(=O)N2CC(C(C)C)N=C32)CC1 (stereo not drawn) [Example 16, 6-(4-chlorobenzyl)-8-(4-methoxypiperidin-1-yl)-2-(propan-2-yl)-2,6-dihydroimidazo[1,2-c]pyrido[2,3-e]pyrimidin-5(3H)-one] | 
6.62 | O=C1N2CC(C3CC3)N=C2c2ncc(N3CCOCC3)cc2N1Cc1ccc(Cl)cc1 (stereo not drawn) [Example 10, 6-(4-chlorobenzyl)-2-cyclopropyl-8-(morpholin-4-yl)-2,6-dihydroimidazo[1,2-c]pyrido[2,3-e]pyrimidin-5(3H)-one] | 
5.85 | CC(C)C1CN2C(=O)N(Cc3ccc(Cl)cc3)c3cc(N4CC5(COC5)C4)cnc3C2=N1 (stereo not drawn) [Example 15, 6-(4-chlorobenzyl)-8-(2-oxa-6-azaspiro[3.3]heptan-6-yl)-2-(propan-2-y1)-2,6-dihydroimidazo[1,2-c]pyrido[2,3-e]pyrimidin-5(3H)-one] | 
5.75 | COCCC1CN2C(=O)N(Cc3ccc(OC)cc3)c3cc(N4CCOCC4)cnc3C2=N1 (stereo not drawn) [Example 65, 6-(4-methoxybenzyl)-2-(2-methoxyethyl)-8-(morpholin-4-yl)-2,6-dihydroimidazo[1,2-c]pyrido[2,3-e]pyrimidin-5(3H)-one] | 
5.90 | COCC1CN=C2c3ncc(N4CCOCC4)cc3N(Cc3ccc(Cl)cc3)C(=O)N21 (stereo not drawn) [Example 13, 6-(4-chlorobenzyl)-3-(methoxymethyl)-8-(morpholin-4-y1)-2,6-dihydroimidazo[1,2-c]pyrido[2,3-e]pyrimidin-5(3H)-one] | 
6.91 | COc1ccc(CN2C(=O)N3CC(C(C)(C)C)N=C3c3ncc(N4CCOCC4)cc32)cc1 (stereo not drawn) [Example 32, 2-tert-butyl-6-(4-methoxybenzyl)-8-(morpholin-4-yl)-2,6-dihydroimidazo[1,2-c]pyrido[2,3-e]pyrimidin-5(3H)-one] | 
